From ChEMBL document CHEMBL1641529, “Novel 9a,11-bridged azalides: One-pot synthesis of N'-substituted 2-imino-1,3-oxazolidines condensed to an azalide aglycone” (2011)
Converted amounts (≈) assume the structure as drawn.

Assays:
Staphylococcus aureus = experiment: Antimicrobial activity against Staphylococcus aureus after 24 hrs by microdilution method; format: functional
Streptococcus pneumoniae = experiment: Antimicrobial activity against Streptococcus pneumoniae after 24 hrs by microdilution method; format: functional
Streptococcus pyogenes = experiment: Antimicrobial activity against Streptococcus pyogenes after 24 hrs by microdilution method; format: functional
Moraxella catarrhalis = experiment: Antimicrobial activity against Moraxella catarrhalis after 24 hrs by microdilution method; format: functional
Haemophilus influenzae = experiment: Antimicrobial activity against Haemophilus influenzae after 24 hrs by microdilution method; format: functional
Saccharomyces cerevisiae = experiment: Toxicity in Saccharomyces cerevisiae after 24 hrs by microdilution method; format: functional, organism-based

For `CC[C@H]1OC(=O)[C@H](C)[C@@H](O)[C@H](C)[C@@H](O[C@@H]2O[C@H](C)C[C@H](N(C)C)[C@H]2O)[C@](C)(O)C[C@@H](C)CN2/C(=N\Cc3ccccc3)O[C@H]([C@H]2C)[C@]1(C)O`, the MIC (Staphylococcus aureus) was 64 µg/mL (≈ 92.5 µM), the MIC (Streptococcus pneumoniae) was 8 µg/mL (≈ 11.6 µM) and the MIC (Streptococcus pyogenes) was 8 µg/mL (≈ 11.6 µM). The MIC (Moraxella catarrhalis) was 64 µg/mL (≈ 92.5 µM), the MIC (Haemophilus influenzae) was greater than 64 µg/mL and the Activity (Saccharomyces cerevisiae) was “Not toxic”.

Molecule `CC[C@H]1OC(=O)[C@H](C)[C@@H](O[C@@H]2C[C@@](C)(OC)[C@@H](O)[C@H](C)O2)[C@H](C)[C@@H](O[C@@H]2O[C@H](C)C[C@H](N(C)C)[C@H]2O)[C@](C)(OC)C[C@@H](C)CN2/C(=N\c3cccc4ccccc34)O[C@H]([C@H]2C)[C@]1(C)O` has an MIC (Staphylococcus aureus) of 16 µg/mL (≈ 17.8 µM), an MIC (Streptococcus pneumoniae) of 0.5 µg/mL (≈ 0.555 µM) and an MIC (Streptococcus pyogenes) of 1 µg/mL (≈ 1.11 µM). The MIC (Moraxella catarrhalis) was 8 µg/mL (≈ 8.89 µM), the MIC (Haemophilus influenzae) was 32 µg/mL (≈ 35.5 µM) and the Activity (Saccharomyces cerevisiae) was “Not toxic”.

Molecule `CC[C@H]1OC(=O)[C@H](C)[C@@H](O[C@@H]2C[C@@](C)(OC)[C@@H](O)[C@H](C)O2)[C@H](C)[C@@H](O[C@@H]2O[C@H](C)C[C@H](N(C)C)[C@H]2O)[C@](C)(O)C[C@@H](C)CN2/C(=N\Cc3ccccc3)O[C@H]([C@H]2C)[C@]1(C)O` has an MIC (Staphylococcus aureus) of 2 µg/mL (≈ 2.35 µM), an MIC (Streptococcus pneumoniae) of less than 0.125 µg/mL and an MIC (Streptococcus pyogenes) of less than 0.125 µg/mL. For the same molecule, the MIC (Moraxella catarrhalis) was 2 µg/mL (≈ 2.35 µM), the MIC (Haemophilus influenzae) was 16 µg/mL (≈ 18.8 µM) and the Activity (Saccharomyces cerevisiae) was “Not toxic”.

For `CC[C@H]1OC(=O)[C@H](C)[C@@H](O[C@@H]2C[C@@](C)(OC)[C@@H](O)[C@H](C)O2)[C@H](C)[C@@H](O[C@@H]2O[C@H](C)C[C@H](N(C)C)[C@H]2O)[C@](C)(O)C[C@@H](C)CN2/C(=N\c3cccc4ccccc34)O[C@H]([C@H]2C)[C@]1(C)O`, the MIC (Staphylococcus aureus) was 8 µg/mL (≈ 9.03 µM), the MIC (Streptococcus pneumoniae) was less than 0.125 µg/mL and the MIC (Streptococcus pyogenes) was 0.25 µg/mL (≈ 0.282 µM). The MIC (Moraxella catarrhalis) was 4 µg/mL (≈ 4.51 µM), the MIC (Haemophilus influenzae) was 8 µg/mL (≈ 9.03 µM) and the Activity (Saccharomyces cerevisiae) was “Not toxic”.

`CC[C@H]1OC(=O)[C@H](C)[C@@H](O[C@@H]2C[C@@](C)(OC)[C@@H](O)[C@H](C)O2)[C@H](C)[C@@H](O[C@@H]2O[C@H](C)C[C@H](N(C)C)[C@H]2O)[C@](C)(OC)C[C@@H](C)CN2/C(=N\C(C)C)O[C@H]([C@H]2C)[C@]1(C)O` was tested, and the MIC (Staphylococcus aureus) was 16 µg/mL (≈ 19.6 µM), the MIC (Streptococcus pneumoniae) was 0.5 µg/mL (≈ 0.613 µM) and the MIC (Streptococcus pyogenes) was 1 µg/mL (≈ 1.23 µM). For the same molecule, the MIC (Moraxella catarrhalis) was 2 µg/mL (≈ 2.45 µM), the MIC (Haemophilus influenzae) was 64 µg/mL (≈ 78.4 µM) and the Activity (Saccharomyces cerevisiae) was “Not toxic”.

`CC[C@H]1OC(=O)[C@H](C)[C@@]2(O)O[C@@](C)(C[C@@H](C)CN3/C(=N\Cc4ccccc4)O[C@H]([C@H]3C)[C@]1(C)O)[C@H](O[C@@H]1O[C@H](C)C[C@H](N(C)C)[C@H]1O)[C@H]2C` gave an MIC (Staphylococcus aureus) greater than 64 µg/mL, an MIC (Streptococcus pneumoniae) of 32 µg/mL (≈ 46.4 µM) and an MIC (Streptococcus pyogenes) of 32 µg/mL (≈ 46.4 µM). The MIC (Moraxella catarrhalis) was 32 µg/mL (≈ 46.4 µM), the MIC (Haemophilus influenzae) was greater than 64 µg/mL and the Activity (Saccharomyces cerevisiae) was “Not toxic”.

In the case of `CC[C@H]1OC(=O)[C@H](C)[C@@]2(O)O[C@@](C)(C[C@@H](C)CN3/C(=N\C(C)C)O[C@H]([C@H]3C)[C@]1(C)O)[C@H](O[C@@H]1O[C@H](C)C[C@H](N(C)C)[C@H]1O)[C@H]2C`, the MIC (Staphylococcus aureus) is reported as greater than 64 µg/mL, the MIC (Streptococcus pneumoniae) is reported as 16 µg/mL (≈ 24.9 µM) and the MIC (Streptococcus pyogenes) is reported as 32 µg/mL (≈ 49.9 µM). For the same molecule, the MIC (Moraxella catarrhalis) was 32 µg/mL (≈ 49.9 µM), the MIC (Haemophilus influenzae) was greater than 64 µg/mL and the Activity (Saccharomyces cerevisiae) was “Not toxic”.

In the case of `CC[C@H]1OC(=O)[C@H](C)[C@@H](O[C@@H]2C[C@@](C)(OC)[C@@H](O)[C@H](C)O2)[C@H](C)[C@@H](O[C@@H]2O[C@H](C)C[C@H](N(C)C)[C@H]2O)[C@](C)(OC)C[C@@H](C)CN2/C(=N\Cc3ccccc3)O[C@H]([C@H]2C)[C@]1(C)O`, the MIC (Staphylococcus aureus) is reported as 2 µg/mL (≈ 2.31 µM), the MIC (Streptococcus pneumoniae) is reported as less than 0.125 µg/mL and the MIC (Streptococcus pyogenes) is reported as less than 0.125 µg/mL. The MIC (Moraxella catarrhalis) was 2 µg/mL (≈ 2.31 µM), the MIC (Haemophilus influenzae) was 16 µg/mL (≈ 18.5 µM) and the Activity (Saccharomyces cerevisiae) was “Not toxic”.

Molecule `CC[C@H]1OC(=O)[C@H](C)C(=O)[C@H](C)[C@@H](O[C@@H]2O[C@H](C)C[C@H](N(C)C)[C@H]2O)[C@](C)(OC)C[C@@H](C)CN2/C(=N\C(C)C)O[C@H]([C@H]2C)[C@]1(C)O` has an MIC (Staphylococcus aureus) greater than 64 µg/mL, an MIC (Streptococcus pneumoniae) of 16 µg/mL (≈ 24.4 µM) and an MIC (Streptococcus pyogenes) greater than 64 µg/mL. For the same molecule, the MIC (Moraxella catarrhalis) was 16 µg/mL (≈ 24.4 µM), the MIC (Haemophilus influenzae) was greater than 64 µg/mL and the Activity (Saccharomyces cerevisiae) was “Not toxic”.

In the case of `CC[C@H]1OC(=O)[C@H](C)[C@@H](O[C@@H]2C[C@@](C)(OC)[C@@H](O)[C@H](C)O2)[C@H](C)[C@@H](O[C@@H]2O[C@H](C)C[C@H](N(C)C)[C@H]2O)[C@](C)(O)C[C@@H](C)CN2/C(=N\c3ccc(-c4ccccc4)cc3OC)O[C@H]([C@H]2C)[C@]1(C)O`, the MIC (Staphylococcus aureus) is reported as 2 µg/mL (≈ 2.12 µM), the MIC (Streptococcus pneumoniae) is reported as less than 0.125 µg/mL and the MIC (Streptococcus pyogenes) is reported as less than 0.125 µg/mL. For the same molecule, the MIC (Moraxella catarrhalis) was 8 µg/mL (≈ 8.49 µM), the MIC (Haemophilus influenzae) was 8 µg/mL (≈ 8.49 µM) and the Activity (Saccharomyces cerevisiae) was “Not toxic”.

Work on `CC[C@H]1OC(=O)[C@H](C)[C@@H](O)[C@H](C)[C@@H](O[C@@H]2O[C@H](C)C[C@H](N(C)C)[C@H]2O)[C@](C)(OC)C[C@@H](C)CN2/C(=N\Cc3ccccc3)O[C@H]([C@H]2C)[C@]1(C)O` yielded an MIC (Staphylococcus aureus) greater than 64 µg/mL, an MIC (Streptococcus pneumoniae) of 32 µg/mL (≈ 45.3 µM) and an MIC (Streptococcus pyogenes) of 16 µg/mL (≈ 22.7 µM). The MIC (Moraxella catarrhalis) was greater than 64 µg/mL, the MIC (Haemophilus influenzae) was greater than 64 µg/mL and the Activity (Saccharomyces cerevisiae) was “Not toxic”.

Molecule `CC[C@H]1OC(=O)[C@H](C)[C@@H](O)[C@H](C)[C@@H](O[C@@H]2O[C@H](C)C[C@H](N(C)C)[C@H]2O)[C@](C)(O)C[C@@H](C)CN2/C(=N\c3ccc(-c4ccccc4)cc3OC)O[C@H]([C@H]2C)[C@]1(C)O` has an MIC (Staphylococcus aureus) greater than 64 µg/mL, an MIC (Streptococcus pneumoniae) greater than 64 µg/mL and an MIC (Streptococcus pyogenes) greater than 64 µg/mL. The MIC (Moraxella catarrhalis) was 32 µg/mL (≈ 40.8 µM), the MIC (Haemophilus influenzae) was greater than 64 µg/mL and the Activity (Saccharomyces cerevisiae) was “Not toxic”.

Work on `CC[C@H]1OC(=O)[C@H](C)C(=O)[C@H](C)[C@@H](O[C@@H]2O[C@H](C)C[C@H](N(C)C)[C@H]2O)[C@](C)(OC)C[C@@H](C)CN2/C(=N\Cc3ccccc3)O[C@H]([C@H]2C)[C@]1(C)O` yielded an MIC (Staphylococcus aureus) greater than 64 µg/mL, an MIC (Streptococcus pneumoniae) of 2 µg/mL (≈ 2.84 µM) and an MIC (Streptococcus pyogenes) of 8 µg/mL (≈ 11.4 µM). The MIC (Moraxella catarrhalis) was 8 µg/mL (≈ 11.4 µM), the MIC (Haemophilus influenzae) was greater than 64 µg/mL and the Activity (Saccharomyces cerevisiae) was “Not toxic”.

For `CC[C@H]1OC(=O)[C@H](C)[C@@H](O)[C@H](C)[C@@H](O[C@@H]2O[C@H](C)C[C@H](N(C)C)[C@H]2O)[C@](C)(O)C[C@@H](C)CN2/C(=N\C(C)C)O[C@H]([C@H]2C)[C@]1(C)O`, the MIC (Staphylococcus aureus) was greater than 64 µg/mL, the MIC (Streptococcus pneumoniae) was 4 µg/mL (≈ 6.21 µM) and the MIC (Streptococcus pyogenes) was 8 µg/mL (≈ 12.4 µM). For the same molecule, the MIC (Moraxella catarrhalis) was greater than 64 µg/mL, the MIC (Haemophilus influenzae) was greater than 64 µg/mL and the Activity (Saccharomyces cerevisiae) was “Not toxic”.

For `CC[C@H]1OC(=O)[C@H](C)[C@@H](O)[C@H](C)[C@@H](O[C@@H]2O[C@H](C)C[C@H](N(C)C)[C@H]2O)[C@](C)(O)C[C@@H](C)CN2/C(=N\c3cccc4ccccc34)O[C@H]([C@H]2C)[C@]1(C)O`, the MIC (Staphylococcus aureus) was greater than 64 µg/mL, the MIC (Streptococcus pneumoniae) was greater than 64 µg/mL and the MIC (Streptococcus pyogenes) was greater than 64 µg/mL. The MIC (Moraxella catarrhalis) was 64 µg/mL (≈ 87.9 µM), the MIC (Haemophilus influenzae) was greater than 64 µg/mL and the Activity (Saccharomyces cerevisiae) was “Not toxic”.

With `CC[C@H]1OC(=O)[C@H](C)[C@@H](O[C@@H]2C[C@@](C)(OC)[C@@H](O)[C@H](C)O2)[C@H](C)[C@@H](O[C@@H]2O[C@H](C)C[C@H](N(C)C)[C@H]2O)[C@](C)(O)C[C@@H](C)CN2/C(=N\C(C)C)O[C@H]([C@H]2C)[C@]1(C)O` the MIC (Staphylococcus aureus) was 16 µg/mL (≈ 19.9 µM), the MIC (Streptococcus pneumoniae) was 2 µg/mL (≈ 2.49 µM) and the MIC (Streptococcus pyogenes) was 2 µg/mL (≈ 2.49 µM). For the same molecule, the MIC (Moraxella catarrhalis) was 16 µg/mL (≈ 19.9 µM), the MIC (Haemophilus influenzae) was greater than 64 µg/mL and the Activity (Saccharomyces cerevisiae) was “Not toxic”.

In the case of `CC[C@H]1OC(=O)[C@H](C)[C@@H](O)[C@H](C)[C@@H](O[C@@H]2O[C@H](C)C[C@H](N(C)C)[C@H]2O)[C@](C)(OC)C[C@@H](C)CN2/C(=N\c3cccc4ccccc34)O[C@H]([C@H]2C)[C@]1(C)O`, the MIC (Staphylococcus aureus) is reported as greater than 64 µg/mL, the MIC (Streptococcus pneumoniae) is reported as 64 µg/mL (≈ 86.3 µM) and the MIC (Streptococcus pyogenes) is reported as greater than 64 µg/mL. For the same molecule, the MIC (Moraxella catarrhalis) was 16 µg/mL (≈ 21.6 µM), the MIC (Haemophilus influenzae) was greater than 64 µg/mL and the Activity (Saccharomyces cerevisiae) was “Not toxic”.
